Experimental data taken from US20160159814A1, “GLYCINE TRANSPORTER INHIBITOR” (TAISHO PHARMACEUTICAL CO., LTD., priority 2013, published 2016).
Read-outs that look alike come from different tables or passages of the source.

Biological target: T1, human type 1 glycine transporter (GlyT1) (Homo sapiens, UniProt P48067)
T1 construct: T98G cells (glioma cells) expressing human type 1 glycine transporter (GlyT1) were used; endogenous in cells; host or cells: T98G cells (human glioma cells)
T1 sequence (P48067 1-706): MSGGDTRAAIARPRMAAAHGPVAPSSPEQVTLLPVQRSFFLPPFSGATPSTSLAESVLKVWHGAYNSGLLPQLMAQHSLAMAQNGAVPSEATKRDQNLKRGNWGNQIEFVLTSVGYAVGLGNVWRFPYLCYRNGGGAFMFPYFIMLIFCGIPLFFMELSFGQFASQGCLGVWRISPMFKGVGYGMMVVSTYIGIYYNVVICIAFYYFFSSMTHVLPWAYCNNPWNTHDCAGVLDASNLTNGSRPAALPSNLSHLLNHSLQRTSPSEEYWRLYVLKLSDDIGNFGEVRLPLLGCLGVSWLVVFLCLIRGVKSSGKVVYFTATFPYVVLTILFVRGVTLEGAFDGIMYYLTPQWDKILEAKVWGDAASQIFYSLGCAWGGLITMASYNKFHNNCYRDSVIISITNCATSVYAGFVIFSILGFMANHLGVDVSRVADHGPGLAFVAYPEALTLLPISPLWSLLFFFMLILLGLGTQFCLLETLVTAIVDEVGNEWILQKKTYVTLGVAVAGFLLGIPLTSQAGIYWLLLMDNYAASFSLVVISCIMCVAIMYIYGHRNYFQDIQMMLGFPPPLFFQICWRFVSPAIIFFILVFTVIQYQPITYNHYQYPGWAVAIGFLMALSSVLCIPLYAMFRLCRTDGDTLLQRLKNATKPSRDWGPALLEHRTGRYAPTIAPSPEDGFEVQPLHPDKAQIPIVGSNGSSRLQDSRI
Test: Glycine uptake inhibition experiment ([3H] glycine uptake in T98G cells expressing GlyT1)
Type: cell-based
Outline: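 T98G glioma cells expressing human GlyT1 were pretreated 10 min with compound in HEPES buffer pH 7.4 (0.2% BSA), then incubated with compound plus 250 nM final [3H]glycine for 15 min at room temperature. Intracellular radioactivity was counted after NaOH lysis; 10 μM ALX5407 defined non-specific uptake. IC50 came from 10^−9–10^−5 M curves.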

| IC50 (glycine uptake inhibition) [nM] | IC50 [nM] | SMILES |
| --- | --- | --- |
| 220 |  | C[C@H](O)c1cccc2c1C(F)(F)C(=O)N2Cc1cc(C(F)F)ccn1 [Compound 122, 1-{[4-(difluoromethyl)pyridin-2-yl]methyl}-3,3-difluoro-4-{(1S)-1-hydroxyethyl]-1,3-dihydro-2H-indol-2-one] |
| 22 |  | C[C@H](O)c1cccc2c1C(F)(F)C(=O)N2Cc1cc(Br)ccn1 [Compound 123, 1-[(4-bromopyridin-2-yl)methyl]-3,3-difluoro-4-[(1S)-1-hydroxyethyl]-1,3-dihydro-2H-indol-2-one] |
| 12 |  | COc1cc(CN2C(=O)C(F)(F)c3c([C@H](C)O)cccc32)ccn1 [Compound 124, 3,3-difluoro-4-[(1S)-1-hydroxyethyl]-1-[(2-methoxypyridin-4-yl)methyl]-1,3-dihydro-2H-indol-2-one] |
| 130 |  | C[C@H](O)c1cccc2c1C(F)(F)C(=O)N2Cc1cc2ccoc2cn1 [Compound 125, 3,3-difluoro-1-(furo[2,3-c]pyridin-5-ylmethyl)-4-[(1S)-1-hydroxyethyl]-1,3-dihydro-2H-indol-2-one] |
| 29 |  | C[C@H](O)c1cccc2c1C(F)(F)C(=O)N2Cc1ccc2ncoc2c1 [Compound 127, 1-(1,3-benzoxazol-6-ylmethyl)-3,3-difluoro-4-[(1S)-1-hydroxyethyl]-1,3-dihydro-2H-indol-2-one] |
| 52 |  | C[C@H](O)c1cccc2c1C(F)(F)C(=O)N2Cc1ccc(F)nc1 [Compound 128, 3,3-difluoro-1-[(S-fluoropyridin-3-yl)methyl]-4-[(1S)-1-hydroxyethyl]-1,3-dihydro-2H-indol-2-one] |
| 6900 |  | C[C@H](O)c1cccc2c1C(F)(F)C(=O)N2Cc1cncc(-n2cncn2)c1 [Compound 129] |
| 400 |  | C[C@H](O)c1cccc2c1C(F)(F)C(=O)N2Cc1ccc(C(F)F)nc1 [Compound 130, 1-{[6-(difluoromethyl)pyridin-3-yl]methyl}-3,3-difluoro-4-[(1S)-1-hydroxyethyl]-1,3-dihydro-2H-indol-2-one] |
| 930 |  | C[C@H](O)c1cccc2c1C(F)(F)C(=O)N2Cc1ccc(C(F)F)cn1 [Compound 131, 1-{[5-(difluoromethyl)pyridin-2-yl]methyl)-3,3-difluoro-4-[(1S)-1-hydroxyethyl]-1,3-dihydro-2H-indol-2-one] |
| 18 |  | C[C@H](O)c1cccc2c1C(F)(F)C(=O)N2Cc1nc2cc(F)ccc2c(=O)n1C [Compound 132, 2-({3,3-difluoro-4-[(1S)-1-hydroxyethyl]-2-oxo-2,3-dihydro-1H-indol-1-yl}methyl)-7-fluoro-3-methylquinazolin-4(3H)-one] |
| 62 |  | O=C1N(Cc2cnc3ccccc3c2)c2cccc([C@@H](O)C(F)(F)F)c2C1(F)F [Compound 133, 3,3-difluoro-1-(quinolin-3-ylmethyl)-4-[(1R)-2,2,2-trifluoro-1-hydroxyethyl]-1,3-dihydro-2H-indol-2-one] |
| 66 |  | O=C1N(Cc2cncc(-n3nccn3)c2)c2cccc([C@@H](O)C(F)(F)F)c2C1(F)F [Compound 134, 3,3-difluoro-1-{[5-(2H-1,2,3-triazol-2-yl)pyridin-3-yl]methyl}-4-[(1R)-2,2,2-trifluoro-1-hydroxyethyl]-1,3-dihydro-2H-indol-2-one] |
| 150 |  | Cn1c(CN2C(=O)C(F)(F)c3c([C@@H](O)C(F)(F)F)cccc32)nc2ccccc21 [Compound 137] |
| 58 |  | O=C1N(Cc2cc3ccccc3c(=O)[nH]2)c2cccc([C@@H](O)C(F)(F)F)c2C1(F)F [Compound 138, 3-({3,3-difluoro-2-oxo-4-[(1R)-2,2,2-trifluoro-1-hydroxyethyl]-2,3-dihydro-1H-indol-1-yl}methyl) isoquinolin-1(2H)-one] |
| 45 |  | O=C1N(Cc2ccnc(C(F)F)c2)c2cccc([C@@H](O)C(F)(F)F)c2C1(F)F [Compound 139, 1-[[2-(difluoromethyl)pyridin-4-yl]methyl]-3,3-difluoro-4-[(1R)-2,2,2-trifluoro-1-hydroxyethyl]-1,3-dihydro-2H-indol-2-one] |
| 33 |  | O=C1N(Cc2nc3ccccc3[nH]c2=O)c2cccc([C@@H](O)C(F)(F)F)c2C1(F)F [Compound 140, 3-({3,3-difluoro-2-oxo-4-[(1R)-2,2,2-trifluoro-1-hydroxyethyl]-2,3-dihydro-1H-indol-1-yl}methyl) quinoxalin-2(1H)-one] |

| IC50 (glycine uptake inhibition) [nM] | IC50 [nM] | SMILES |
| --- | --- | --- |
| 100 |  | Cn1c(=O)c(CN2C(=O)C(F)(F)c3c([C@@H](O)C(F)(F)F)cccc32)nc2ccccc21 [Compound 141, 3-({3,3-difluoro-2-oxo-4-[(1R)-2,2,2-trifluoro-1-hydroxyethyl]-2,3-dihydro-1H-indol-1-yl}methyl)-1-methylquinoxalin-2(1H)-one] |
| 130 |  | Cn1c(CN2C(=O)C(F)(F)c3c([C@@H](O)C(F)(F)F)cccc32)cc2ccccc2c1=O [Compound 142, 3-({3,3-difluoro-2-oxo-4-[(1R)-2,2,2-trifluoro-1-hydroxyethyl]-2,3-dihydro-1H-indol-1-yl}methyl)-2-methylisoquinan-1(2H)-one] |
| 43 |  | O=C1N(Cc2cc(Cl)ccn2)c2cccc([C@@H](O)C(F)(F)F)c2C1(F)F [Compound 145, 1-[(4-chloropyndin-2-yl)methyl]-3,3-difluoro-4-[(1R)-2,2,2-trifluoro-1-hydroxyethyl]-1,3-dihydro-2H-indol-2-one] |
| 200 |  | O=C1N(Cc2ccnc(F)c2)c2cccc([C@@H](O)C(F)(F)F)c2C1(F)F [Compound 149, 3,3-difluoro-1-[(2-fluoropyridin-4-yl)methyl]-4-[(1R)-2,2,2-trifluoro-1-hydroxyethyl]-1,3-dihydro-2H-indol-2-one] |
| 310 |  | O=C1N(Cc2ccnc(F)c2)c2cccc(C(O)C(F)F)c2C1(F)F (stereo not shown) [Compound 150, 4-(2,2-difluoro-1-hydroxyethyl)-3,3-difluoro-1-[(2-fluoropyridin-4-yl)methyl]-1,3-dihydro-2H-indol-2-one] |
| 180 |  | O=C1N(Cc2ccc(F)nc2)c2cccc([C@@H](O)C(F)(F)F)c2C1(F)F [Compound 155, 3,3-difluoro-1-[(6-fluoropyridin-3-yl)methyl]-4-[(1R)-2,2,2-trifluoro-1-hydroxyethyl]-1,3-dihydro-2H-indol-2-one] |
|  | 410 | C[C@H](O)c1cccc2c1C(F)(F)C(=O)N2Cc1ccncc1F [Compound 163, 3,3-difluoro-1-[(3-fluoropyridin-4-yl)methyl]-4-[(1S)-1-hydroxyethyl]-1,3-dihydro-2H-indol-2-one] |
|  | 26 | COc1cc(CN2C(=O)C(F)(F)c3c([C@@H](O)C(F)(F)F)cccc32)ccn1 [Compound 166, 3,3-difluoro-1-[(2-methoxypyridin-4-yl)methyl]-4-[(1R)-2,2,2-trifluoro-1-hydroxyethyl]-1,3-dihydro-2H-indol-2-one] |
|  | 19 | C[C@H](O)c1cccc2c1C(F)(F)C(=O)N2Cc1ccnc(C#N)c1F [Compound 173, 4-({3,3-difluoro-4-[(1S)-1-hydroxyethyl]-2-oxo-2,3-dihydro-1H-indol-1-yl}methyl)-3-fluoropyridine-2-carbonitrile] |
|  | 95 | C[C@H](O)c1cccc2c1C(F)(F)C(=O)N2Cc1cncc(C2CC2)c1 [Compound 174, 1-[(5-cyclopropylpyridin-3-yl)methyl]-3,3-difluoro-4-[(1S)-1-hydroxyethyl]-1,3-dihydro-2H-indol-2-one] |
|  | 23 | C[C@H](O)c1cccc2c1C(F)(F)C(=O)N2Cc1ccnc(C2CC2)c1 [Compound 175, 1-[(2-cyclopropylpyridin-4-yl)methyl]-3,3-difluoro-4-[(1S)-1-hydroxyethyl]-1,3-dihydro-2H-indol-2-one] |
|  | 24 | C[C@H](O)c1cccc2c1C(F)(F)C(=O)N2Cc1cccc(C#N)n1 [Compound 177, 6-({3,3-difluoro-4-[(1S)-1-hydroxyethyl]-2-oxo-2,3-dihydro-1H-indol-1-yl}methyl)pyridine-2-carbonitrile] |
|  | 280 | C[C@H](O)c1cccc2c1C(F)(F)C(=O)N2Cc1ccncc1Cl [Compound 185, 1-[(3-chloropyridin-4-yl)methyl]-3,3-difluoro-4-[(1S)-1-hydroxyethyl]-1,3-dihydro-2H-indol-2-one] |
|  | 34 | C[C@H](O)c1cccc2c1C(F)(F)C(=O)N2Cc1cc(Cl)nc(C#N)c1 [Compound 187, 6-chloro-4-({3,3-difluoro-4-[(1S)-1-hydroxyethyl]-2-oxo-2,3-dihydro-1H-indol-1-yl}methyl)pyridine-2-carbonitrile] |
|  | 62 | C[C@H](O)c1cccc2c1C(F)(F)C(=O)N2Cc1cc(C#N)ncc1F [Compound 188, 4-({3,3-difluoro-4-[(1S)-1-hydroxyethyl]-2-oxo-2,3-dihydro-1H-indol-1-yl}methyl)-5-fluoropyridine-2-carbonitrile] |
